Literature values, collected in US20250302824A1, “IN SITU READY-TO-USE INJECTION FORMULATIONS OF POSACONAZOLE FREE OF CYCLODEXTRIN AND ITS DERIVATIVES” (Hefei Cosource Pharmaceuticals Co., Ltd, priority 2024, published 2025).
≈ marks a conversion by molar mass, not a printed value. Where two headings read alike, the source gives them in different places.

In the case of `CC[C@@H]([C@H](C)O)n1ncn(-c2ccc(N3CCN(c4ccc(OC[C@@H]5CO[C@@](Cn6cncn6)(c6ccc(F)cc6F)C5)cc4)CC3)cc2)c1=O` [Posaconazole], the solubility (at pH 1) is given as 0.8 mg/mL (≈ 1140 µM) and the solubility (in neutral and alkaline solutions) is given as “less than 1 μg/ml”.
